Experiments:
[1] = tobacco air curing, vacuum infiltration; cited from earlier work
non-smoker = assay: Comparison of a normal filtered cigarette and cigarettes with oily Vitamin E injected into the filter or the tobacco, puffs by a non-smoker; assay type: in vivo; details: for lung irritation and coughing: three puffs, non-smoker
Excerpt: A second comparison was made between a normal filtered cigarette, a filtered cigarette with oily Vitamin E injected into the filter and oily Vitamin E injected into the length of the tobacco. In this second comparison, the control cigarette was a normal MARLBORO® cigarette. In two separate MARLBORO® cigarettes, oily Vitamin E was taken from a Vitamin E capsule with a syringe and injected into the filter of one cigarette and into the length of the tobacco of the other cigarette.
The three cigarettes where then lit with a butane lighter and three equal, alternating puffs were taken from each cigarette by a non-smoker. […] The cigarette with Vitamin E along the length of the tobacco yielded no irritation. Moreover, the flavor of the Vitamin E tobacco cigarette gave the impression of having been enhanced.

[2] = stand-alone additive, apart from an alcohol mixture; cited from earlier work
non-tobacco user = assay: Comparison of a normal smokeless tobacco wad and a wad with dry Vitamin E analog, placed between cheek and gum; assay type: in vivo; details: 0.1 grams mixed with 10.0 grams SKOAL long cut smokeless tobacco, 1.0 gram wad between cheek and gum
Excerpt: A third comparison was made between a normal wad of smokeless tobacco and a wad of smokeless tobacco modified to include a substantially pure, “dry” form of Vitamin E analog. For this comparison, 1.0 gram of unmodified SKOAL® long cut smokeless tobacco (i.e., snuff) was first placed in the mouth of a non-tobacco user between the cheek and gum. This unmodified smokeless tobacco produced a pleasant flavor but also a simultaneous burning sensation in the mouth, throat and esophagus which, along with an induced cough, forced the non-tobacco user to spit out the unmodified smokeless tobacco. To clear the burning sensation from mouth, the non-tobacco user washed mouth out with water. Nonetheless, the burning sensation persisted in the mouth and throat for over 5 minutes after the initial washing.
Approximately four hours later, long enough to ensure the sensitivity and the burning sensation had completely subsided, the non-tobacco user then mixed 0.1 grams of Vitamin E acid succinate obtained from the Eastman Chemical Corporation of Kingsport, Tenn. with 10.0 grams of SKOAL® long cut smokeless tobacco. A 1.0 gram wad of this Vitamin E modified smokeless tobacco was then placed in the mouth of the non-tobacco user between the cheek and gum. Like the unmodified snuff, this Vitamin E modified snuff produced a similar pleasant flavor.

smoker and non-smoker = assay: Comparison of a normal filterless cigarette and a filterless cigarette with dry Vitamin E analog, smoked; assay type: in vivo
Excerpt: A comparison was made between a normal filterless cigarette and a filterless cigarette modified to include a substantially pure, “dry” form of Vitamin E analog. For this comparison, […] of CHESTERFIELD® tobacco were removed from a CHESTERFIELD® cigarette and mixed with 0.1 grams of Vitamin E acid succinate. The mixed tobacco blend was formed into a filterless cigarette using a Rizla auto rolling box. A control cigarette, without Vitamin E analog additive, was also formed using the same Rizla auto rolling box.

Compound: Cc1c(C)c2c(c(C)c1O)CC[C@@](C)(CCC[C@H](C)CCC[C@H](C)CCCC(C)C)O2 [alpha-tocopherol]
- diminution in concentration during the curing process [1]: 25%

Compound: Cc1c(C)c2c(c(C)c1O)CC[C@@](C)(CCC[C@H](C)CCC[C@H](C)CCCC(C)C)O2 [Vitamin E, d-alpha tocopherol]
- lung irritation and coughing (non-smoker; oily Vitamin E injected into the filter of a MARLBORO cigarette, control irritated lungs and induced coughing): less irritating but still induced an unpleasant lung reaction and a slight cough
- lung irritation and coughing (non-smoker; oily Vitamin E injected into the length of the tobacco of a MARLBORO cigarette): no irritation
- beneficial effect on irritation, retest on the same samples (non-smoker; retest after several days, taken to indicate the Vitamin E had oxidized/metabolized): the beneficial effect was gone
- neutralizing NNN [2]: ineffective

Compound: Cc1c(C)c2c(c(C)c1OC(=O)CCC(=O)O)CC[C@@](C)(CCC[C@H](C)CCC[C@H](C)CCCC(C)C)O2 [Vitamin E acid succinate, d-alpha tocopheryl acid succinate]
- irritation (burning sensation) of mouth, throat and esophagus (non-tobacco user): completely non-irritating
- throat or lung irritation when smoked (smoker and non-smoker; 0.1 grams mixed with 7.5 grams CHESTERFIELD tobacco, filterless cigarette, smoker and non-smoker, control caused throat and lung irritation): no throat or lung irritation
- throat or lung irritation, retest on the same samples (smoker and non-smoker; retest after several days and again after several weeks): the same results

Reference: patent publication US6584980B1, “Tobacco products with stabilized additives having vitamin E activity” (Rousseau Research, Institute, priority 1998, dated 2003)
